Source: ChEMBL document CHEMBL5108009, “Positron Emission Tomography (PET) Imaging Tracers for Serotonin Receptors” (J Med Chem, 2022)

Experiments:
[1] = species: Macaca mulatta; experiment: Binding affinity to rhesus monkey dorsal anterior cingulate cortex 5-HT1A; type: tissue-based; details: filed as antagonist, tested as the 18F-labelled form
[2] = species: Macaca mulatta; experiment: Binding affinity to rhesus monkey mesial temporal cingulate cortex 5-HT1A; type: tissue-based; details: filed as antagonist, tested as the 18F-labelled form
[3] = Drug uptake in cynomolgus monkey brain treated with WAY-100635 followed by compound 878 Ci/mmol, iv measured at 2.5 mins postinjection by PET imaging relative to control; type: ADME, organism-based, Macaca fascicularis; details: in vivo
[4] = biological target: T1, 5-hydroxytryptamine receptor 1A (Homo sapiens, UniProt P08908)
T1 sequence (P08908 whole entry): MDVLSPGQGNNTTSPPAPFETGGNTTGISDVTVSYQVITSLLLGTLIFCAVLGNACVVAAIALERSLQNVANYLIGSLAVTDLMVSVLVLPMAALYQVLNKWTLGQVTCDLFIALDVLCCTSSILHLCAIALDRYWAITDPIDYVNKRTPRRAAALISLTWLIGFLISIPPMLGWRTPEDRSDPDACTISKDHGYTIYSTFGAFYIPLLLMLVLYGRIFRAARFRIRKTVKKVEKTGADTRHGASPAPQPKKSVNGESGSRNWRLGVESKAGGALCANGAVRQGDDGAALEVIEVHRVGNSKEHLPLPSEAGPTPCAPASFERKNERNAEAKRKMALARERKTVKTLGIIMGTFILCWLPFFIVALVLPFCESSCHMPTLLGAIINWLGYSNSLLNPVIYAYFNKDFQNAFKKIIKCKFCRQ

[5] = biological target: 5-hydroxytryptamine receptor 7 (Rattus norvegicus, UniProt P32305); experiment: Binding affinity to rat 5-HT7 receptor assessed as inhibition constant
Chain of 5-hydroxytryptamine receptor 7 (Rattus norvegicus, UniProt P32305) (P32305 whole entry): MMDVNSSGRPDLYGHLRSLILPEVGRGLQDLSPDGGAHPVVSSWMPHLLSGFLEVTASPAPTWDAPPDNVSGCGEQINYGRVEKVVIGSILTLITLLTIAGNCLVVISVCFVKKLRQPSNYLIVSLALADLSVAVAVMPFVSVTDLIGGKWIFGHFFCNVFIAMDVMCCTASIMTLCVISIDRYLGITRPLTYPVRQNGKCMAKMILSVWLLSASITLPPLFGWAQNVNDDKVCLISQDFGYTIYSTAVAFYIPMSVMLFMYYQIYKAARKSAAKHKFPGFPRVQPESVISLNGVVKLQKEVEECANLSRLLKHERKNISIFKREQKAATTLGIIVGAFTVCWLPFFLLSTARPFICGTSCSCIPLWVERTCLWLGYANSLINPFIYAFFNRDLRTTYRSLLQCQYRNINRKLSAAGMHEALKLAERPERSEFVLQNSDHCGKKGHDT

[6] = biological target: T2, 5-hydroxytryptamine receptor 2C (Homo sapiens, UniProt P28335); experiment: Binding affinity to human 5-HT2C assessed as inhibition constant
T2 sequence (P28335 whole entry): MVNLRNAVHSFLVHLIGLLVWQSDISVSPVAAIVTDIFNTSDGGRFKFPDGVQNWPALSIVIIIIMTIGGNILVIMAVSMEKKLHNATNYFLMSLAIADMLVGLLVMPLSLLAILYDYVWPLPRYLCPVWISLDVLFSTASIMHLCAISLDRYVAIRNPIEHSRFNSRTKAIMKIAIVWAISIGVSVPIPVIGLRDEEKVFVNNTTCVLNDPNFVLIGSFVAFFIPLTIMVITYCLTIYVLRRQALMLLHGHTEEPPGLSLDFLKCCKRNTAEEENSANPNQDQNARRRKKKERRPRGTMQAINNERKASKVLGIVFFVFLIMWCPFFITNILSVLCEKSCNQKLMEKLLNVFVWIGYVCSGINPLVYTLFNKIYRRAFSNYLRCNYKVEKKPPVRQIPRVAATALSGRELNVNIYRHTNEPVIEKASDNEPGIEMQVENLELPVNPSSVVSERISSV

[7] = Biodistribution in rat assessed as drug uptake measured as percentage of injected dose per gram of tissue relative to control; type: ADME, organism-based; details: in vivo
[8] = Drug uptake in cynomolgus monkey brain treated with WAY-100635 followed by compound 230 Ci/mmol, iv measured at 2.5 mins postinjection by PET imaging relative to control; type: ADME, organism-based, Macaca fascicularis; details: in vivo
[9] = biological target: T3, 5-hydroxytryptamine receptor 7 (Homo sapiens, UniProt P34969); experiment: Binding affinity to 5-HT7 receptor (unknown origin) assessed as inhibition constant
T3 sequence (P34969 whole entry): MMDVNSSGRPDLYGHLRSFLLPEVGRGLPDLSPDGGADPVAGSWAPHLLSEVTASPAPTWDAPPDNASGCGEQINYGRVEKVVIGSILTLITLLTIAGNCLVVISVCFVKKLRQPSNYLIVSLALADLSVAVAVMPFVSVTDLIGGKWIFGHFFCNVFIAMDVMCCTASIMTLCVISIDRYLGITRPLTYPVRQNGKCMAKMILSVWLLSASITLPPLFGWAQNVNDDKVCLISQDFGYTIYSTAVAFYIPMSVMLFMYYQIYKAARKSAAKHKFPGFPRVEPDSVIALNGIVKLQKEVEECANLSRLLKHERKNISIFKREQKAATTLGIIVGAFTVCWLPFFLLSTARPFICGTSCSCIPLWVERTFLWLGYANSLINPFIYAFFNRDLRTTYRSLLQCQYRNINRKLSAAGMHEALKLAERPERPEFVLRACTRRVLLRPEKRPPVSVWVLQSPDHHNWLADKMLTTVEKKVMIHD

[10] = biological target: D(4) dopamine receptor (Homo sapiens, UniProt P21917); experiment: Binding affinity to D4 receptor (unknown origin) assessed as inhibition constant
Chain of D(4) dopamine receptor (P21917 whole entry): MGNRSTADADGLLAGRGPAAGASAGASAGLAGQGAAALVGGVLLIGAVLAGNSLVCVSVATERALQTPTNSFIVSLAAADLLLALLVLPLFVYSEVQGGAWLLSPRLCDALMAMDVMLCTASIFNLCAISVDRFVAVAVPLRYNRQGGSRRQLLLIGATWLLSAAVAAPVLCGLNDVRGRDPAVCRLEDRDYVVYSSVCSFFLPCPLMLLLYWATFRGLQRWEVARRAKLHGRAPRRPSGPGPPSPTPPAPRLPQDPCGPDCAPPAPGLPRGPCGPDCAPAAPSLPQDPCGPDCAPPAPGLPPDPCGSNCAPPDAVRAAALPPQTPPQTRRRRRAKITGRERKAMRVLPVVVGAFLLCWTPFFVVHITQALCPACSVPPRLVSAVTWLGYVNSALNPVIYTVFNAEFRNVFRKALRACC

[11] = biological target: T4, Alpha-1A adrenergic receptor (Homo sapiens, UniProt P35348); experiment: Binding affinity to alpha 1A adrenergic receptor (unknown origin) assessed as inhibition constant
T4 sequence (P35348 whole entry): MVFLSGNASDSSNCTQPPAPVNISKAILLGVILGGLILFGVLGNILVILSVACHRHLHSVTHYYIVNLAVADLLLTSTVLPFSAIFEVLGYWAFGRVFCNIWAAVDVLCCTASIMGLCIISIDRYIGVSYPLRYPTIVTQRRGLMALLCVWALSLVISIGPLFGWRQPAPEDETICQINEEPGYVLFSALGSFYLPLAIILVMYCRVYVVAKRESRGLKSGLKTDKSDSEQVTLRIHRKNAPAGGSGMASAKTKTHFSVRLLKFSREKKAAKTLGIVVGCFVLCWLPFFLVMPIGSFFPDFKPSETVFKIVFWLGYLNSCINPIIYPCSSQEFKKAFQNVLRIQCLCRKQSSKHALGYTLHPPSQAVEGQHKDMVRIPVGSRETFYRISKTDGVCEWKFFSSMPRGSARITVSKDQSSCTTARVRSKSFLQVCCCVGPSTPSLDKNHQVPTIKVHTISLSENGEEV

[12] = biological target: 5-hydroxytryptamine receptor 1A (Homo sapiens) (UniProt P08908); experiment: Binding affinity to 5-HT1A receptor (unknown origin); details: filed as agonist
[13] = Ratio of drug uptake in Rhesus monkey raphe to cerebellum; type: ADME, tissue-based, Macaca mulatta; details: in vivo
[14] = Ratio of drug uptake in Rhesus monkey frontal cortex to cerebellum; type: ADME, tissue-based, Macaca mulatta, Brain frontal cortex/cerebellum; details: in vivo
[15] = Ratio of drug uptake in Rhesus monkey temporal cortex to cerebellum; type: ADME, tissue-based, Macaca mulatta; details: in vivo
[16] = Drug metabolism in Rhesus monkey plasma assessed as unmetabolized compound after 3 hrs by TLC analysis; type: ADME, cell-free, Macaca mulatta; details: read-out: Stability
[17] = biological target: Serotonin 3 (5-HT3) receptor
Description: Inhibition of 5HT3 receptor (unknown origin)

[18] = Drug biodistribution in rat brain incubated for 30 mins by autoradiographic analysis; type: ADME, organism-based; details: in vivo, 0.5 h
[19] = biological target: T3, 5-hydroxytryptamine receptor 7; experiment: Binding affinity to human 5-HT7 receptor expressed in HEK293 cells incubated for 1 hr by 96 microwell plate; type: cell-based; details: filed as agonist
[20] = biological target: T5, 5-hydroxytryptamine receptor 1A (Rattus norvegicus, UniProt P19327); experiment: Displacement of [3H]-8-OH-DPAT from Sprague-Dawley rat hippocampal membrane 5HT1A receptor incubated for 10 mins by liquid scintillation analysis; type: cell membranes, Hippocampus
T5 sequence (P19327 whole entry): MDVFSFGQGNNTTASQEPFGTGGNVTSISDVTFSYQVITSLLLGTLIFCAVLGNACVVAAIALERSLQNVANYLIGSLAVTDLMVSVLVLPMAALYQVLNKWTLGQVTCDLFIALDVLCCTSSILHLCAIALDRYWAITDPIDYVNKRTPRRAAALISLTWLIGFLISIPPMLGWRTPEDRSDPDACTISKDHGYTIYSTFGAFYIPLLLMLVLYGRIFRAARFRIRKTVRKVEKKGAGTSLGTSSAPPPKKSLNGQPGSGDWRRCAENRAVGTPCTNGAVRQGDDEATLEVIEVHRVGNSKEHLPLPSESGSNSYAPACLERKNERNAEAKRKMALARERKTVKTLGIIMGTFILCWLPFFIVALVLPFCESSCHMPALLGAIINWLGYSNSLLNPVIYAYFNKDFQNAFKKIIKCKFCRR

[21] = biological target: T3, 5-hydroxytryptamine receptor 7; experiment: Binding affinity to human recombinant 5-HT7 receptor expressed in CHO cells assessed as inhibition constant; type: cell-based
[22] = biological target: T1, 5-hydroxytryptamine receptor 1A; experiment: Binding affinity to human recombinant 5-HT1A expressed in CHO cells assessed as inhibition constant; type: cell-based
[23] = biological target: T4, Alpha-1A adrenergic receptor; experiment: Inhibition of alpha 1A adrenergic receptor (unknown origin)
[24] = Drug uptake in rat brain; type: ADME, tissue-based; details: in vivo
[25] = Ratio of drug uptake in baboon hippocampus to cerebellum; type: ADME, tissue-based, Papio; details: in vivo
[26] = Ratio of drug uptake in baboon cingulate cortex to cerebellum; type: ADME, tissue-based, Papio; details: in vivo
[27] = Ratio of drug uptake in baboon insula to cerebellum; type: ADME, tissue-based, Papio; details: in vivo
[28] = biological target: Alpha-1A adrenergic receptor (Homo sapiens) (UniProt P35348); experiment: Binding affinity to alpha 1A adrenergic receptor (unknown origin); details: filed as antagonist
[29] = biological target: T5, 5-hydroxytryptamine receptor 1A; experiment: Displacement of [3H]-8-OH-DPAT from rat hippocampal membrane 5HT1A receptor by CEREP assay; type: cell membranes, Hippocampus

SMILES: COc1ccccc1N1CCN(CCN(c2ccccn2)C(=O)[C@H]2CC[C@H](CF)CC2)CC1
- Bmax [1]: 36 pmol/mL
- Bmax [2]: 42 pmol/mL

SMILES: CC1(C(=O)N(CCN2CCN(c3ccccc3O[11CH3])CC2)c2ccccn2)CCCCC1
- Drug uptake [3]: 3%
- Ki [4]: 2.3 nM

SMILES: CC1(CCCCN2CCN(c3cccc(OCCF)c3)CC2)C(=O)Nc2ccccc21 (stereo not drawn)
- Ki [5]: 5.6 nM

SMILES: COc1c(OCCF)cccc1[C@H](O)C1CCN(CCc2ccc(F)cc2)CC1
- Ki [6]: 71 nM

SMILES: COc1ccccc1N1CCN(CCCCN(C)C(=O)c2cnc(S[11CH3])n2C)CC1
- Drug uptake [7]: 0.37 % ID/g

SMILES: COc1ccccc1N1CCN(CC(C)N(c2ccccn2)[11C](=O)C2CCCCC2)CC1 (racemic)
- Drug uptake [8]: 4.8%
- Ki [4]: 0.91 nM

SMILES: COc1cccc(N2CCN(CCCCn3ncc(=O)n(C)c3=O)CC2)c1
- Ki [9]: 12.9 nM
- Ki [10]: 21.8 nM
- Ki [4]: 0.15 nM
- Ki [11]: 6.75 nM

SMILES: COc1ccccc1N1CCN(CC(O)COc2cccc3c2SCCC3)CC1 (stereo not drawn)
- K [12]: 5 nM

SMILES: COc1ccccc1N1CCN(CCN(C(=O)C2CCC(C[18F])CC2)c2ccccn2)CC1 (stereo not drawn)
- Ratio [13]: 3.3
- Ratio [14]: 9
- Ratio [15]: 10
- remaining at 3 h [16]: 30%

SMILES: CN1CCN(c2ccc3ccccc3n2)CC1
- IC50 [17]: 4.7 nM

SMILES: O=S(=O)(c1ccc([18F])cc1)C1CCN(CCc2ccc(F)cc2F)CC1
- Drug uptake [18]: > 80%

SMILES: CCn1cncc1-c1c[nH]c2ccc(OC)cc12
- K [19]: 30 nM

SMILES: Cc1ccc2c(c1O)-c1cccc3c1C(C2)N(C)CC3 (stereo not drawn)
- Ki [20]: 0.45 nM

SMILES: COc1ccccc1N1CCN(CCC[C@H]2CCCN2S(=O)(=O)c2ccccc2F)CC1
- Ki [21]: 1.9 nM
- Ki [22]: 4.1 nM

SMILES: [11CH3]Oc1cccc2c1CCCC2CCCN1CCN(c2ccccc2)CC1 (stereo not drawn)
- IC50 [23]: 43 nM

SMILES: COc1ccc2cccc(N3CCN(CCNC(=O)c4ccc([18F])cc4)CC3)c2c1
- SUV [24]: 2
- Ki [4]: 0.98 nM

SMILES: [O-][S+](c1ccc([18F])cc1)C1CCN(CCc2ccc(F)cc2F)CC1 (stereo not drawn)
- Drug uptake [18]: 30%

SMILES: Cn1c(=O)cnn(CCCCN2CCN(c3ccccc3O[11CH3])CC2)c1=O
- Ratio [25]: > 4.7
- Ratio [26]: > 4.7
- Ratio [27]: > 4.7

SMILES: COc1ccccc1N1CCN(CCCCn2ccnc2SC)CC1
- K [28]: 3 nM
- IC50 [29]: 0.58 nM
